We go through 14 compounds from article PMC6267619, “Isolation of Betulinic Acid, its Methyl Ester and Guaiane Sesquiterpenoids with Protein Tyrosine Phosphatase 1B Inhibitory Activity from the Roots of Saussurea lappa C.B.Clarke” (Molecules, 2008).

Structures are written as SMILES. In brackets after ≈: the same amount, converted by molar mass. Several values for one entry are separate records, joined by “and”; a condition that tells them apart may be missing. Equal entries are not always repeated. Where only a bound is given, the exact number is not on record here.

The target in this assay is T1, PTP1B (human, recombinant) (Homo sapiens, UniProt P18031).
T1 construct: purchased BIOMOL International LP (Plymouth Meeting, PA)
T1 sequence (P18031 1-435): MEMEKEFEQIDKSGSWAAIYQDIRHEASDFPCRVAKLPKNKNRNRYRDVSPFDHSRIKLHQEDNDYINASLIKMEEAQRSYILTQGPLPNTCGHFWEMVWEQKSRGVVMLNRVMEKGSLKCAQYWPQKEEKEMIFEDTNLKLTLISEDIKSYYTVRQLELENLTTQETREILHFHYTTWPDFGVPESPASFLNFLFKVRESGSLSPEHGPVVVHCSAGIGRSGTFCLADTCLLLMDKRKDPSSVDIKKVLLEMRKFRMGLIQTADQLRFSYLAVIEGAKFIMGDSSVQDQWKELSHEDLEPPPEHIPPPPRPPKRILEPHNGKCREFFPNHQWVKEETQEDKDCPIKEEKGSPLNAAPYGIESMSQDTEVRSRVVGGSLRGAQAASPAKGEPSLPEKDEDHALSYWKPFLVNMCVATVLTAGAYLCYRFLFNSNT
Description: PTP1B inhibition assay with pNPP as substrate. Format: biochemical. Conditions: for inhibition at 30 µg/mL / Inhibition % of PTP1B activity: at 30 μg/mL; for IC50: read-out: IC50 (PTP1B inhibitory activity) (converted). The procedure: PTP1B (human, recombinant) was purchased from BIOMOL® International LP (Plymouth Meeting, PA). The enzyme activity was measured using p-nitrophenyl phosphate (pNPP) as a substrate. To each of 96 wells in a microtiter plate (final volume: 100 μL) was added 2 mM pNPP and PTP1B (0.05-0.1 μg) in a buffer containing 50 mM citrate (pH 6.0), 0.1 M NaCl, 1 mM EDTA, and 1 mM dithiothreitol (DTT) with or without test compounds. Following incubation at 37°C for 30 min, the reaction was terminated with 10 M NaOH. The amount of produced p-nitrophenol was estimated by measuring the absorbance at 405 nm. The non-enzymatic hydrolysis of 2 mM pNPP was corrected by measuring the increase in absorbance at 405 nm obtained in the absence of PTP1B enzyme.

Setting [1] is: na = not active (less than 50% inhibition at the level of 30 μg/mL).

With `C=C(C)[C@@H]1CC[C@]2(C(=O)O)CC[C@]3(C)[C@H](CC[C@@H]4[C@@]5(C)CC[C@H](O)C(C)(C)[C@@H]5CC[C@]43C)[C@@H]12` [Compound 1, betulinic acid], the inhibition – broadly, how much of the control response was suppressed – at 30 µg/mL is 95.1%. The IC50 (as a rule, the concentration at which inhibition is half-maximal) under setting [1] was 1.53 µM.

As for `CCCCCCCCCCCCCCCCCC(=O)O[C@H]1CC[C@]2(C)[C@H]3CC=C4[C@@H]5[C@@H](C)[C@H](C)CC[C@]5(C)CC[C@@]4(C)[C@]3(C)CC[C@H]2C1(C)C` [Compound 13, α-amyrin stearate], the “Inhibition % of PTP1B activity” value was under 50.0%. Regarding `C=C1CC[C@H]2C(=C)CC[C@@H]3[C@H](OC(=O)[C@H]3C)[C@@H]12` [Compound 3, mokko lactone], the inhibition at 30 µg/mL turned out to be 93.1%. For the same compound, the IC50 under setting [1] was 6.07 µM and 6.03 µM. Consider `C/C1=C\[C@H]2OC(=O)[C@@H](C)[C@@H]2CC/C(C)=C/CC1` [Compound 6, 11β,13-dihydrocostunolide], for which the inhibition at 30 µg/mL was under 50%. Still for that read-out and setting: the figure for `C[C@H]1[C@H](C)CC[C@]2(C(=O)O)CC[C@]3(C)C(=CC[C@@H]4[C@@]5(C)CC[C@H](O)C(C)(C)[C@@H]5CC[C@]43C)[C@H]12` [Ursolic acid, reference compound] is 99%.

Turning to `CCCCCCCCCCCCCCCC(=O)C1=C(O)C(CO)OC1=O` (stereo not shown) [RK-682, reference compound], the “Inhibition % of PTP1B activity” value was 98.5%. For the same compound, the “IC50 (PTP1B inhibitory activity)” value under setting [1] was found to be 1.2 ± 0.09 µg/mL (≈ 3.26 µM).

Take `C=C1C(=O)O[C@@H]2/C=C(\C)CC/C=C(\C)CC[C@@H]12` [Compound 5, costunolide]: the inhibition at 30 µg/mL is under 50%. For the compound `C=CCCCCC/C=C\C/C=C\C/C=C\CC` [Compound 12, aplotaxene], the “Inhibition % of PTP1B activity” value is on record as under 50.0%.

Regarding `C=C1CC[C@H]2C(=C)CC[C@H]3C(=C)C(=O)O[C@@H]3[C@@H]12` [Compound 4, dehydrocostuslactone], the inhibition at 30 µg/mL stood at 86.2%. For the same compound, the IC50 under setting [1] is 28.3 µM and 28.2 µM. For `C=C1C(=O)O[C@@H]2[C@@H]3[C@@](C)(CC[C@@H]12)[C@H](O)CC[C@@]3(C)O` [Compound 8, 1β-hydroxy arbusculin A], the inhibition at 30 µg/mL was under 50%. Same read-out and setting: the figure for `CC[C@H](CC[C@@H](C)[C@H]1CC[C@H]2[C@@H]3CC=C4C[C@@H](O)CC[C@]4(C)[C@H]3CC[C@]12C)C(C)C` [Compound 11, β-sitosterol] is under 50%. With `C=C(C)[C@@H]1CC[C@]2(C(=O)OC)CC[C@]3(C)[C@H](CC[C@@H]4[C@@]5(C)CC[C@H](O)C(C)(C)[C@@H]5CC[C@]43C)[C@@H]12` [Compound 2, betulinic acid methyl ester], the inhibition at 30 µg/mL came out at 89.4%. For the same compound, under setting [1], the IC50 is 1.98 µM and 1.91 µM. On to `C=C1CC[C@@H](O)[C@]2(C)CC[C@H]3C(=C)C(=O)O[C@@H]3[C@@H]12` [Compound 7, reynosin], for which the inhibition at 30 µg/mL is under 50%. The same measure, in the same setting: to `C=C1C(=O)O[C@@H]2[C@H]3C(C)=CC[C@@H](O)[C@]3(C)CC[C@@H]12` [Compound 9, santamarine] belongs under 50%.
